Values joined by “and” are separate entries in the source; they are usually repeats but may differ in a detail not shown here. Identical values can stand only once. Toxic doses and inconclusive results are not listed.
Tested on: BALB/cJ mice, ADJ-PC-6 ip tumor, median survival T/C
Assay: NCI In Vivo Anticancer Drug Screen. Data for tumor model ADJ-PC-6 (intraperitoneal) in BALB/cJ mice
Settings: endpoint: median survival time, higher = longer survival
Method: The antitumor activity of compounds was measured in mice bearing transplantable tumors. Survival or tumor size were measured and the results are expressed as the measurement made in the treated group (T) divided by the measurement made in the vehicle treated control group (C). The tumor model used in this assay is ADJ-PC-6 (intraperitoneal) in BALB/cJ mice

## CCCCCCCC(=O)N/N=C(\CO)[C@]1(O)Cc2c(O)c3c(c(O)c2[C@@H](OC2CC(N)C(O)C(C)O2)C1)C(=O)c1c(OC)cccc1C3=O (some centres undefined)
dose: 5.0 mg/kg/injection, schedule: Q04DX003 (ip), vehicle: saline
  T/C: 165 % of control
dose: 10.0 mg/kg/injection, schedule: Q04DX003 (ip), vehicle: saline
  T/C: 242 % of control
dose: 20.0 mg/kg/injection, schedule: Q04DX003 (ip), vehicle: saline
  T/C: 180 % of control
dose: 40.0 mg/kg/injection, schedule: Q04DX003 (ip), vehicle: saline
  T/C: 226 % of control
dose: 80.0 mg/kg/injection, schedule: Q04DX003 (ip), vehicle: saline
  T/C: 118 % of control

## CO[C@H]1C[C@@H]2CC[C@@H](C)[C@@](O)(O2)C(=O)C(=O)N2CCCC[C@H]2C(=O)O[C@H]([C@H](C)C[C@@H]2CC[C@@H](O)[C@H](OC)C2)CC(=O)[C@H](C)C=C(C)[C@@H](O)[C@@H](OC)C(=O)[C@H](C)C[C@H](C)/C=C/C=C/C=C1C
dose: 7.5 mg/kg/injection, schedule: Q01DX009 (ip), vehicle: saline with Tween-80
  T/C: 113 % of control and 114 % of control
dose: 15.0 mg/kg/injection, schedule: Q01DX009 (ip), vehicle: saline with Tween-80
  T/C: 116 % of control
dose: 25.0 mg/kg/injection, schedule: Q01DX009 (ip), vehicle: saline
  T/C: 87 % of control
dose: 30.0 mg/kg/injection, schedule: Q01DX009 (ip), vehicle: saline with Tween-80
  T/C: 114 % of control and 118 % of control
dose: 50.0 mg/kg/injection, schedule: Q01DX009 (ip), vehicle: saline
  T/C: 98 % of control
dose: 60.0 mg/kg/injection, schedule: Q01DX009 (ip), vehicle: saline with Tween-80
  T/C: 95 % of control and 110 % of control
dose: 100.0 mg/kg/injection, schedule: Q01DX009 (ip), vehicle: saline
  T/C: 87 % of control
dose: 120.0 mg/kg/injection, schedule: Q01DX009 (ip), vehicle: saline with Tween-80
  T/C: 87 % of control
dose: 200.0 mg/kg/injection, schedule: Q01DX009 (ip), vehicle: saline
  T/C: 93 % of control

## O=c1[nH]cc(F)c(=O)[nH]1
dose: 7.5 mg/kg/injection, schedule: Q04DX003 (ip), vehicle: saline
  T/C: 150 % of control and 471 % of control
dose: 15.0 mg/kg/injection, schedule: Q04DX003 (ip), vehicle: saline
  T/C: 173 % of control and 308 % of control
dose: 30.0 mg/kg/injection, schedule: Q04DX003 (ip), vehicle: saline
  T/C: 150 % of control and 273 % of control and 471 % of control
dose: 60.0 mg/kg/injection, schedule: Q04DX003 (ip), vehicle: saline
  T/C: 193 % of control and 335 % of control and 471 % of control

## CO[C@H](C(=O)[C@@H](O)[C@@H](C)O)[C@@H]1Cc2cc3cc(OC4CC(OC5CC(O)C(O)C(C)O5)C(O)C(C)O4)c(C)c(O)c3c(O)c2C(=O)[C@H]1OC1CC(OC2CC(OC3CC(C)(O)C(O)C(C)O3)C(O)C(C)O2)C(O)C(C)O1 (some centres undefined)
dose: 0.13 mg/kg/injection, schedule: Q04DX003 (ip), vehicle: clinical formulation
  T/C: 104 % of control
dose: 0.25 mg/kg/injection, schedule: Q04DX003 (ip), vehicle: clinical formulation
  T/C: 108 % of control
dose: 125.0 micrograms/kg/injection, schedule: Q04DX003 (ip), vehicle: saline
  T/C: 100 % of control

## CN(C)/N=N/c1nc[nH]c1C(N)=O
dose: 50.0 mg/kg/injection, schedule: Q01DX009 (ip), vehicle: saline with Tween-80
  T/C: 99 % of control
dose: 50.0 mg/kg/injection, schedule: Q04DX003 (ip), vehicle: saline with Tween-80
  T/C: 335 % of control and 471 % of control
dose: 100.0 mg/kg/injection, schedule: Q01DX009 (ip), vehicle: saline with Tween-80
  T/C: 110 % of control
dose: 200.0 mg/kg/injection, schedule: Q01DX009 (ip), vehicle: saline with Tween-80
  T/C: 105 % of control
dose: 200.0 mg/kg/injection, schedule: Q04DX003 (ip), vehicle: Klucel (hydroxypropylcellulose) (HPC)
  T/C: 216 % of control and 275 % of control
dose: 200.0 mg/kg/injection, schedule: Q04DX003 (ip), vehicle: saline with Tween-80
  T/C: 335 % of control and 471 % of control
dose: 400.0 mg/kg/injection, schedule: Q04DX003 (ip), vehicle: Klucel (hydroxypropylcellulose) (HPC)
  T/C: 275 % of control and 369 % of control
dose: 400.0 mg/kg/injection, schedule: Q04DX003 (ip), vehicle: saline with Tween-80
  T/C: 227 % of control and 335 % of control and 471 % of control

## [Cl][Pt+2][Cl].[NH-]C1CCCC1.[NH2-]
dose: 1.04 mg/kg/injection, schedule: Q04DX003 (ip), vehicle: saline
  T/C: 204 % of control
dose: 1.73 mg/kg/injection, schedule: Q04DX003 (ip), vehicle: saline
  T/C: 254 % of control
dose: 2.88 mg/kg/injection, schedule: Q04DX003 (ip), vehicle: saline
  T/C: 385 % of control
dose: 4.8 mg/kg/injection, schedule: Q04DX003 (ip), vehicle: saline
  T/C: 445 % of control
dose: 8.0 mg/kg/injection, schedule: Q04DX003 (ip), vehicle: saline
  T/C: 451 % of control

## O=C(O)c1ccc(C(=O)O)o1.[NH-]C1CCCCC1[NH-].[Pt+2]
dose: 2.59 mg/kg/injection, schedule: Q04DX003 (ip), vehicle: water
  T/C: 265 % of control
dose: 4.3 mg/kg/injection, schedule: Q04DX003 (ip), vehicle: water
  T/C: 254 % of control
dose: 7.2 mg/kg/injection, schedule: Q04DX003 (ip), vehicle: water
  T/C: 367 % of control
dose: 12.0 mg/kg/injection, schedule: Q04DX003 (ip), vehicle: water
  T/C: 234 % of control
dose: 20.0 mg/kg/injection, schedule: Q04DX003 (ip), vehicle: water
  T/C: 451 % of control

From PubChem BioAssay AID184 (DTP/NCI, 2004)
